# Data as given in patent publication US20080171117A1, “METHODS FOR REDUCING MICROBIAL CONTAMINATION IN SEAFOOD PROCESSING” (Tasker Products Corp., priority 2004, published 2008).
# Key:
# [1] = test system: SPC; assay: Treated salmon under refrigeration: SPC; settings: Treated With O3
# [2] = test system: Coliform; assay: Treated salmon under refrigeration: Coliform; settings: Treated With O3
smiles,measurement,setting,value
"O=[O+][O-] [O3, Ozone]",Log SPC,[1]; day 3,0
same,SPC,[1]; day 3,1
same,Log SPC,[1]; day 6,0
same,SPC,[1]; day 6,1
same,Log SPC,[1]; day 8,1.643
same,SPC,[1]; day 8,44
same,Log SPC,[1]; day 9,0
same,SPC,[1]; day 9,1
same,Log SPC,[1]; day 10,1.146
same,SPC,[1]; day 10,14
same,Coliform,[2]; day 3,0.5
same,Coliform,[2]; day 6,0.5
same,Coliform,[2]; day 8,0.5
same,Coliform,[2]; day 9,0.5
same,Coliform,[2]; day 10,0.5
